In one data set the test system is HeLa (human cervical). The experiment in a line: Cytotoxicity, fluorometric cell viability assay (resazurin), HeLa. It counts as cell-based. The following applies: 48 h incubation, read-out: IC50 (μM) HeLa. The protocol: (§1) HeLa and CT-26 cell lines were cultured in DMEM media (Gibco) supplemented with 10% of fetal calf serum (Gibco). CT-26 LUC cell line was cultured in DMEM media (Gibco) supplemented with 10% of fetal calf serum (Gibco) and 1% Genticin. RPE-1 cell line was cultured in DMEM/F-12 media (Gibco) supplemented with 10% of fetal calf serum. […] The resistance of A2780 cis was maintained by cisplatin treatment (1 μM) for one week every month. […] U87 cell line was cultured in MEM media (Gibco) supplemented with 10% of fetal calf serum (Gibco) and 1% of non-essential amino acid mixture (Gibco). Cell lines were complemented with 100 U/ml penicillin-streptomycin mixture (Gibco) and maintained in humidified atmosphere at 37° C. and 5% of CO2.
(§2) Cytotoxicity of the tested Ru compounds according to the present invention was assessed by a fluorometric cell viability assay using Resazurin (ACROS Organics). […] After 24 h, cells were treated with increasing concentrations of the compounds. Compounds dilutions were prepared as follows: 2.5 mM stock in DMSO was further diluted to 100 μM with media and then filtrated. After 48 h incubation, medium was removed, and 100 μl of complete medium containing resazurin (0.2 mg/ml final concentration) was added. […] IC50 values were then calculated using GraphPad Prism software.

The subject of data set [1] is A2780 (human ovarian carcinoma). The experiment in a line: Cytotoxicity, fluorometric cell viability assay (resazurin), A2780. Type of data set: cell-based. The following applies: A2780, 48 h incubation; read-out: IC50 (μM) A2780. The protocol: as §1, §2
For data set [2], the system named is A2780 ADR (human doxorubicin resistant ovarian carcinoma). Description: Cytotoxicity, fluorometric cell viability assay (resazurin), A2780 ADR. Type of data set: cell-based. Conditions: A2780 ADR (doxorubicin resistant), 48 h incubation; read-out: IC50 (μM) A2780 ADR. Here is the method: as §1, §2
Data set [3] deals with A2780 cis (human cisplatin resistant ovarian carcinoma). Description: Cytotoxicity, fluorometric cell viability assay (resazurin), A2780 cis. It counts as cell-based. The following applies: A2780 cis (cisplatin resistant), 48 h incubation; read-out: IC50 (μM) A2780 cis. Here is the method: as §1, §2
Data set [4] concerns CT-26 (mouse colon adenocarcinoma). Description: Cytotoxicity, fluorometric cell viability assay (resazurin), CT-26. Type of data set: cell-based. Conditions: CT-26, 48 h incubation; read-out: IC50 (μM) CT-26. The protocol: as §1, §2
Data set [5] has as its system CT-26 LUC (mouse colon adenocarcinoma stably expressing luciferase). The experiment in a line: Cytotoxicity, fluorometric cell viability assay (resazurin), CT-26 LUC. It counts as cell-based. Conditions: CT-26 luc, 48 h incubation; read-out: IC50 (μM) CT-26 luc. Here is the method:
as §1, §2

Data set [6] relates to RPE-1 (normal retina pigmented epithelial). The experiment in a line: Cytotoxicity, fluorometric cell viability assay (resazurin), RPE-1. Conditions: RPE-1 normal cells, 48 h incubation; read-out: IC50 (μM) RPE-1. It counts as cell-based. The protocol:
as §1, §2

In data set [7] the test system is solid Ehrlich tumour. The experiment in a line: Survival of mice bearing solid Ehrlich tumour. Type of data set: in vivo. Conditions: 5 mg/kg i.p. on days 1 and 7, tumour-bearing NMRI mice.
From the text: A solid Ehrlich tumour was purchased from the Research Institute for Pharmacy and Biochemistry (VUFB) in Prague, and then maintained in NMRI mice by periodical transplantations. […] On the tenth day, half of the mice were sacrificed, and their tumours were weighed. The remaining animals were left in order to observe their survival.
One-Way Analysis of Variance with post-hoc Dunnetts's multiple comparison test was used to detect differences in tumour weight. Kaplan-Meier curves (FIG. 4) and logrank tests were used to compare survival times in groups. Here, the level of significance was α=0.05.
For data set [8], the system named is solid Ehrlich tumour. The experiment in a line: Tumour weight, solid Ehrlich tumour, day 10. Conditions: 5 mg/kg i.p. on days 1 and 7, measured on day 10.
From the text: Values are the means±SEM (n=7 in each group).
A solid Ehrlich tumour was purchased from the Research Institute for Pharmacy and Biochemistry (VUFB) in Prague, and then maintained in NMRI mice by periodical transplantations. […] On the tenth day, half of the mice were sacrificed, and their tumours were weighed.
One-Way Analysis of Variance with post-hoc Dunnetts's multiple comparison test was used to detect differences in tumour weight.
The nature of data set [9]: Encapsulation in polysorbate 80 (film rehydration). It counts as physicochemical. The following applies: in 50 mg/mL of polysorbate 80 in PBS, after 0.20 μm filtration. The protocol: The solvent was removed by rotary evaporation at 40° C. The red film was then resuspended in PBS (2 mL) at room temperature. The solution was finally sterile filtered on a 0.20 μm nylon membrane (Corning© 431224) to yield a clear red solution.
50 μL of the sample was diluted in 100 μL of acetonitrile and the absorbance was recorded at 480 nm in 96 wells plates from Corning© (Fisher Scientific 15329740) using a SpectraMax M5 microplate Reader.
Encapsulation efficiency was calculated by comparing the absorbance of the solution before and after filtration using the following equation.
To ensure its repeatability, the procedure was performed in triplicate.

As to `N.N.[Cl][Pt][Cl]` [Cisplatin], the IC50 in the data set on HeLa (human cervical) amounted to 9.28 ± 0.2 µM; in [1], 4 ± 0.76 µM; in [2], 8.32 ± 0.71 µM; in data set [3], 18.3 ± 2.92 µM; in data set [4], 2.6 ± 0.18 µM; in data set [5], 2.42 ± 0.23 µM. The IC50 in data set [6] was 30.2 ± 5.11 µM. Besides, in the data set on solid Ehrlich tumour [7], the “geometric mean of overall survival” value was 33.7 days. Further, in the data set with solid Ehrlich tumour [8], the “effect on tumour growth (tumour weight)” value is reported as “significant inhibitory effect”.
In data set [9], “[Ru(DIP)2(3-Methoxysq)](PF6) [Compound 4]” registered a concentration dissolved of 840 ± 60 µg/mL.

The values are drawn from US20220242894A1, “Ruthenium (II) Complexes and Their Use as AntiCancer Agents” (Paris Sciences et Lettres, priority 2019, published 2022).
